2 substances from patent publication US10588982B2, “Site-specific covalent chemical ligation to monoclonal and polyclonal immunoglobulin” (The Regents of the University of California, priority 2015, dated 2020) can be followed below.

One assay has as its system trastuzumab. Nature of the assay: Confirmation screen on TentaGel beads, crosslinked trastuzumab detected with anti-human IgG Cy3. The settings on record: DNFB reacted with methylamine or methylpypridine prior to staining.
The subject of the next assay is SKOV3. Nature of the assay: In vitro T cell killing assay by flow cytometry. Type of assay: cell-based. Particulars: with activated T cells. How it is done:
FIG. 30. Depicts results of an in vitro T cell killing assay monitored and quantified by flow cytometry.
In vitro cytotoxicity assays were performed to analyze the effect of the NMDS-LYX30 bi-functional immunoconjugate on T cell targeting of an α3β1 integrin expressing target cell. Target cells (SKOV3) were labeled with GFP. The labeled target cells were plated in 6-well plates at 30000 cells per well and allowed to adhere overnight at 37° C. in a humidified atmosphere of 5% CO2. PBMCs were isolated from healthy volunteer donor and activated with anti-CD3, anti-CD28 (1 ug/ml) for 72 hours prior to co-incubation with target cells. The activated PBMCs were co-cultured with target cells at E:T=10:1 ratio for 12 hours at 37° C. in a humidified atmosphere of 5% CO2 with or without 100 ng/ml immunoconjugates contained medium. At the end of the incubation, the cells were lifted by trypsin and collected from the plate. The cells were resuspended in equal volume of PBS containing 2% FBS, 1 mmol/L EDTA, Propidium iodine (PI) and Annexin V-APC for 15 minutes. The fluorescent intensity of GFP, PI and APC were recorded by a FACs machine. 10000 events of target cells were recorded by gating GFP positive channel. The percentage of live/dead cells was calculated by the different cell population containing different amount of annexin V or PI. […] The results are depicted in FIG. 30.
(A flow cytometer gives signals particle by particle.)

In the case of “indole-butyrate-Lys(DNFB)-Asp-Ser linker [DS affinity element]”, the “decrease in fluorescent intensity” value in the assay on trastuzumab is 50%. In the case of “nivolumab: anti-PD-1 checkpoint inhibitor antibody”, the target cell killing result in the assay with SKOV3 is “increased target cell killing”.
